The values that follow come from PubChem BioAssay (NCI).

Among the test systems are DMS 273 small cell lung; MOLT-4 leukemia; RXF 393 renal; SK-MEL-2 melanoma; LXFL 529 NSCLC; RXF-631 renal; A549 NSCLC; UACC-62 melanoma; 786-0 renal; NCI-H460 lung.
Experiment in all cases: NCI tumour cell line growth inhibition, 48 h

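48-hour exposure; five concentrations; linearly interpolated endpoints. GI50: concentration for 50% inhibition of growth. TGI is the concentration that stops growth completely.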

With `CC(C)C(=O)Nc1nc2nc[nH]c2c(=O)[nH]1`, the TGI in the experiment on DMS 273 small cell lung, in the experiment on MOLT-4 leukemia, in the experiment on RXF 393 renal, with SK-MEL-2 melanoma, in the experiment with LXFL 529 NSCLC and with RXF-631 renal was > 100 µM throughout. For the same compound, the TGI in the experiment on A549 NSCLC, in the experiment with UACC-62 melanoma, with 786-0 renal and with NCI-H460 lung was > 100 µM in each case.
Take `CCN(CC)CCn1ccc(=O)c2cc3c(=O)ccn(CCN(CC)CC)c3c(C)c21`: the TGI with DMS 273 small cell lung was 15.1 µM; in the experiment with MOLT-4 leukemia, > 100 µM; in the experiment with RXF 393 renal it was 14.1 µM; in the experiment with SK-MEL-2 melanoma it was 24.5 µM; in the experiment on LXFL 529 NSCLC it was 16.5 µM; in the experiment with RXF-631 renal, 21.5 µM. For the same compound, the TGI in the experiment on A549 NSCLC came to 14.1 µM; in the experiment on UACC-62 melanoma, 29.2 µM; with 786-0 renal, 8.56 µM; with NCI-H460 lung, 3.47 µM.
As to `Cc1ccncc1.[O]=[Ge].[O]=[Ge].[O]=[Ge].[O]=[Ge].[O]=[Ge].[O]=[Ge][OH].[O]=[Ge][OH]`, the GI50 in the experiment with DMS 273 small cell lung, in the experiment with MOLT-4 leukemia, with RXF 393 renal, in the experiment with SK-MEL-2 melanoma, in the experiment with LXFL 529 NSCLC and in the experiment with RXF-631 renal was > 100 µM throughout. Also, the GI50 with A549 NSCLC, in the experiment with UACC-62 melanoma, with 786-0 renal and in the experiment with NCI-H460 lung was > 100 µM throughout. For the same compound, the TGI in the experiment on DMS 273 small cell lung, in the experiment on MOLT-4 leukemia, in the experiment on RXF 393 renal, in the experiment with SK-MEL-2 melanoma, in the experiment on LXFL 529 NSCLC and in the experiment on RXF-631 renal was > 100 µM in each case. The TGI in the experiment on A549 NSCLC, in the experiment on UACC-62 melanoma, with 786-0 renal and in the experiment with NCI-H460 lung was > 100 µM each time.
Regarding `O=c1c2c([nH]c3cc4c(cc13)OCO4)-c1ccccc1CC2`, the TGI in the experiment on DMS 273 small cell lung, in the experiment on MOLT-4 leukemia, with RXF 393 renal, with SK-MEL-2 melanoma, in the experiment with LXFL 529 NSCLC and in the experiment on RXF-631 renal was > 100 µM in each case. Besides, the TGI in the experiment with A549 NSCLC, with UACC-62 melanoma, in the experiment on 786-0 renal and in the experiment on NCI-H460 lung was > 100 µM throughout.
Consider `CC(=O)NNc1nc(C)c(C(=O)NNC(=O)C(=O)Nc2ccccc2C#N)s1`, for which the TGI in the experiment on DMS 273 small cell lung, with MOLT-4 leukemia, with RXF 393 renal, with SK-MEL-2 melanoma, in the experiment on LXFL 529 NSCLC and in the experiment on RXF-631 renal was > 100 µM each time. Besides, the TGI in the experiment with A549 NSCLC, in the experiment on UACC-62 melanoma, in the experiment with 786-0 renal and with NCI-H460 lung was > 100 µM in each case.
Take `CCCc1[nH]nc(CCC(=O)N(Cc2ccccc2)Cc2ccccc2)c1CC`: the TGI with DMS 273 small cell lung, in the experiment with MOLT-4 leukemia, with RXF 393 renal, with SK-MEL-2 melanoma, in the experiment on LXFL 529 NSCLC and in the experiment with RXF-631 renal was > 100 µM in each case. In addition, the TGI with A549 NSCLC, in the experiment on UACC-62 melanoma, with 786-0 renal and in the experiment with NCI-H460 lung was > 100 µM each time.
For `CC(=O)NC(CCCNCc1ccccc1)C(=O)NCc1ccccc1` (stereo not given), the TGI with DMS 273 small cell lung, in the experiment on MOLT-4 leukemia, in the experiment with RXF 393 renal, with SK-MEL-2 melanoma, in the experiment with LXFL 529 NSCLC and in the experiment with RXF-631 renal was > 100 µM throughout. Also, the TGI with A549 NSCLC, with UACC-62 melanoma, in the experiment on 786-0 renal and in the experiment with NCI-H460 lung was > 100 µM in each case.
In the case of `CCOC(=O)C1=C(C)N(Cc2ccccc2)C(C)=C(C(=O)OCC)C1c1ccccc1O`, the TGI with DMS 273 small cell lung is > 100 µM; in the experiment on MOLT-4 leukemia, 32.3 µM; in the experiment with RXF 393 renal, 60.2 µM; in the experiment with SK-MEL-2 melanoma, 52.7 µM; in the experiment with LXFL 529 NSCLC it was 71 µM; in the experiment with RXF-631 renal, > 100 µM. The TGI in the experiment on A549 NSCLC is > 100 µM; in the experiment with UACC-62 melanoma, 50.2 µM; in the experiment on 786-0 renal it was > 100 µM; with NCI-H460 lung, > 100 µM.
Consider `CC(C)(C)OC(=O)C#CC[C@H]1CCCC1/C=C/C(O)=C1/C(=O)NC(CCCNC(=O)OC(C)(C)C)C1=O` (stereo not given in full), for which the TGI came out at 65.9 µM in the experiment with DMS 273 small cell lung; 75.9 µM in the experiment with MOLT-4 leukemia; 30 µM in the experiment on RXF 393 renal; 34.4 µM in the experiment on SK-MEL-2 melanoma; 53.8 µM in the experiment on LXFL 529 NSCLC; 44.9 µM in the experiment on RXF-631 renal. In addition, the TGI in the experiment with A549 NSCLC is > 100 µM; in the experiment on UACC-62 melanoma it was 34.9 µM; in the experiment with 786-0 renal, > 100 µM; in the experiment with NCI-H460 lung, 61.6 µM.
